Patent US7126676B2, “Spectral analysis of light scattered from clotting blood” (priority 2002, dated 2006)
Like-named read-outs stand apart in the source and are kept apart here.

Tests used:
[1] = tested on: clotting native whole blood; settings: for Ratio of Post-treatment to Pre-treatment Value of Logistic Parameter B: two hours after ingestion, same subject
[2] = rofecoxib-treated arm compared with naproxen; cited from earlier work
[3] = tested on: clotting; settings: cited from earlier work

## CC(=O)Oc1ccccc1C(=O)O [Aspirin]
[1]; 470 nm, Aspirin 325 mg single dose
  Ratio of Post-treatment to Pre-treatment Value of Logistic Parameter B: 4.48
[1]; 550 nm, Aspirin 325 mg single dose
  Ratio of Post-treatment to Pre-treatment Value of Logistic Parameter B: 1.45
[1]; 610 nm, Aspirin 325 mg single dose
  Ratio of Post-treatment to Pre-treatment Value of Logistic Parameter B: 2.18
[1]; 700 nm, Aspirin 325 mg single dose
  Ratio of Post-treatment to Pre-treatment Value of Logistic Parameter B: 1.85

## Cc1ccc(-c2cc(C(F)(F)F)nn2-c2ccc(S(N)(=O)=O)cc2)cc1 [Celecoxib]
[1]; 470 nm, Celecoxib 400 mg single dose
  Ratio of Post-treatment to Pre-treatment Value of Logistic Parameter B: 0.087
[1]; 550 nm, Celecoxib 400 mg single dose
  Ratio of Post-treatment to Pre-treatment Value of Logistic Parameter B: 0.154
[1]; 610 nm, Celecoxib 400 mg single dose
  Ratio of Post-treatment to Pre-treatment Value of Logistic Parameter B: 0.055
[1]; 700 nm, Celecoxib 400 mg single dose
  Ratio of Post-treatment to Pre-treatment Value of Logistic Parameter B: 0.107

## COc1ccc2cc([C@H](C)C(=O)O)ccc2c1 [Naproxen]
[1]; 470 nm, Naproxen 600 mg single dose
  Ratio of Post-treatment to Pre-treatment Value of Logistic Parameter B: 1.63
[1]; 550 nm, Naproxen 600 mg single dose
  Ratio of Post-treatment to Pre-treatment Value of Logistic Parameter B: 0.03
[1]; 610 nm, Naproxen 600 mg single dose
  Ratio of Post-treatment to Pre-treatment Value of Logistic Parameter B: 0.34
[1]; 700 nm, Naproxen 600 mg single dose
  Ratio of Post-treatment to Pre-treatment Value of Logistic Parameter B: 0.28
[1]; at 470 nm
  Effect on clotting as determined by the invention, in words: aspirin-like effect
[1]; at the other wavelengths (550, 610, 700 nm)
  Effect on clotting as determined by the invention, in words: celecoxib-like effect

## CS(=O)(=O)c1ccc(C2=C(c3ccccc3)C(=O)OC2)cc1 [rofecoxib]
[2]
  Incidence of thrombotic events: higher incidence of thrombotic events
[3]
  Effect on clotting as measured by routine techniques: Neither rofecoxib nor celecoxib has any effect on clotting
